Laboratory results published in patent publication US20080045535A1, “Prokineticin 2 receptor antagonists” (priority 2005, published 2008).
“And” between values parts separate entries of the source, which are not always exact repeats. Identical values can stand only once.

Biological target: T1, HEK 293 GPR73 (prokineticin 1 receptor) expressing cells (Homo sapiens, UniProt Q8TCW9)
T1 construct: expressed in transfected cells; host or cells: HEK 293
Assay: PK1 functional assay: screening for PK1 antagonists on the FLIPR (calcium fluorescence)
Format: cell-based
Conditions: HEK 293 GPR73 cells; for inhibition at 10 µM: HEK293, compound at 10 μM, read-out: Ca^2+ Mobilization % Inh @10 μM; for inhibition at 10 µM / Ca^2+ Mobilization % Inh @10 μM: multiple values = repeat tests; for IC50: PK1 ligand at EC50, multiple values = repeat tests, read-out: Ca^2+ Mobilization IC50; for Ca^2+ Mobilization % Inh @10 μM: compound at 10 μM
Summary of the method: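 HEK 293 cells expressing GPR73 were loaded with Calcium Plus Dye for 30 min at 37 C, then read for calcium fluorescence on FLIPR. Values were baseline-subtracted and expressed as percent of maximal control; percent inhibition is 100 minus that, and IC50 was fitted from it.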

T1 sequence (Q8TCW9 whole entry): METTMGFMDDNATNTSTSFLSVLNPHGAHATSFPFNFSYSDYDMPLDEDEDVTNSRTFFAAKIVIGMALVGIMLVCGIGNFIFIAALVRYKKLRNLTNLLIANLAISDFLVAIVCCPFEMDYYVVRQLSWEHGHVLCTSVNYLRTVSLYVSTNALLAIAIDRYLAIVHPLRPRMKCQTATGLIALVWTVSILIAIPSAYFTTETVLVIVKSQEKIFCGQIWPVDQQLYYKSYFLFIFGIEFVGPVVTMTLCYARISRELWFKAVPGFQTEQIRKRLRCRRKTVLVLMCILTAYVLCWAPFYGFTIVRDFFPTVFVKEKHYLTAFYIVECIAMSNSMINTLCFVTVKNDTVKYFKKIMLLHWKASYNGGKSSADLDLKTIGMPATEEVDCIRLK

Compound | inhibition at 10 µM | IC50 | Ca^2+ Mobilization % Inh @10 μM | Ca^2+ Mobilization % Inh @10 μM (10 µM)
COc1ccc(Cn2c(=O)nc(NCCNC(=N)N)n(Cc3ccc(O)cc3)c2=O)cc1 [Cpd 143, N-{2-[1-(4-Hydroxy-benzyl)-5-(4-methoxy-benzyl)-4,6-dioxo-1,4,5,6-tetrahydro-[1,3,5]triazin-2-ylamino]-ethyl}-guanidine] | 100% | 6 nM and 27 nM |  | 
COc1ccc(Cn2c(NCCCCCCNC(=N)N)nc(=O)n(Cc3ccc(Cl)cc3)c2=O)cc1 [Cpd 144] | 77% | 1330 nM |  | 
COc1ccc(CCn2c(=O)nc(NCCNC(=N)N)n(Cc3ccc(OC)cc3)c2=O)cc1 [Cpd 145] | 86% | 461 nM |  | 
COc1ccc(CCCn2c(=O)nc(NCCNC(=N)N)n(Cc3ccc(OC)cc3)c2=O)cc1 [Cpd 146] | 87% | 670 nM |  | 
COC(=O)c1ccc(Cn2c(NCCNC(=N)N)nc(=O)n(Cc3ccc(Cl)c(Cl)c3)c2=O)cc1 [Cpd 147] | 82% |  |  | 
CCCCOc1ccc(Cn2c(NCCNC(=N)N)nc(=O)n(Cc3ccccc3)c2=O)cc1 [Cpd 148] | 41% | > 10000 nM |  | 
NC(N)=NCCNc1nc(=O)n(Cc2ccc(Cl)cc2)c(=O)n1Cc1ccccc1 [Cpd 149] |  | 4780 nM | 64% | 
N=C(N)NCCNc1nc(=O)n(Cc2ccc(Cl)cc2)c(=O)n1Cc1ccoc1 [Cpd 150] |  | 1870 nM | 71% | 
COc1ccc(Cn2c(NCCNC(=N)NC(C)=O)nc(=O)n(Cc3ccc(F)cc3)c2=O)cc1 [Cpd 151] | 99% | 3 nM |  | 
C=CCNC(=N)NCCNc1nc(=O)n(Cc2ccc(F)cc2)c(=O)n1Cc1ccc(OC)cc1 [Cpd 152] | 97% | 9 nM |  | 
COc1ccc(Cn2c(NCCNC(=N)NC(C)C)nc(=O)n(Cc3ccc(F)cc3)c2=O)cc1 [Cpd 153] | 99% | 13 nM |  | 
CCCNC(=N)NCCNc1nc(=O)n(Cc2ccc(F)cc2)c(=O)n1Cc1ccc(OC)cc1 [Cpd 154] | 99% | 3 nM and 6 nM |  | 98%
CCNC(=N)NCCNc1nc(=O)n(Cc2ccc(F)cc2)c(=O)n1Cc1ccc(OC)cc1 [Cpd 155] | 99% | 16 nM |  | 
CNC(=N)NCCNc1nc(=O)n(Cc2ccc(F)cc2)c(=O)n1Cc1ccc(OC)cc1 [Cpd 156] | 102% | 4 nM and 7 nM |  | 99%
COc1ccc(Cn2c(C(=O)NCCNC(=N)N)cc(=O)n(Cc3ccc(OC)cc3)c2=O)cc1 [Cpd 157, 1,3-Bis-(4-methoxy-benzyl)-2,6-dioxo-1,2,3,6-tetrahydro-pyrimidine-4-carboxylic acid (2-guanidino-ethyl)-amide] | 92% | 197 nM |  | 
COc1ccc(Cn2c(OCCNC(=N)N)cc(=O)n(Cc3ccc(OC)cc3)c2=O)cc1 [Cpd 158, N-{2-[1,3-Bis-(4-methoxy-benzyl)-2,6-dioxo-1,2,3,6-tetrahydro-pyrimidin-4-yloxy]-ethyl}-guanidine] | 93% | 254 nM |  | 
COc1ccc(Cn2c(SCCNC(=N)N)cc(=O)n(Cc3ccc(OC)cc3)c2=O)cc1 [Cpd 159, N-{2-[1,3-Bis-(4-methoxy-benzyl)-2,6-dioxo-1,2,3,6-tetrahydro-pyrimidin-4-ylsulfanyl]-ethyl}-guanidine] | 98% | 13 nM |  | 
COc1ccc(Cn2c(CCCNC(=N)N)cc(=O)n(Cc3ccc(OC)cc3)c2=O)cc1 [Cpd 160, N-{3-[1,3-Bis-(4-methoxy-benzyl)-2,6-dioxo-1,2,3,6-tetrahydro-pyrimidin-4-yl]-propyl}guanidine] | 89% | 616 nM |  | 
N-{2-[5-Benzyl-1-(4-methoxy-benzyl)-4,6-dioxo-1,4,5,6-tetrahydro-[1,3,5]triazin-2-ylamino]-ethyl}-oxyguanidine [Cpd 27] |  | 1970 nM | 55% | 
